# In patent US8013170B2, “Substituted pyrrolo[1,2-d][1,4]-diazonines and treatment of brain damage” (priority 2003, dated 2011):
# Entries after “also recorded” stand apart in the source; their conditions may differ. Where two headings read alike, the source gives them in different places.
# Columns and labels:
# [1] = rcm bond
# cerebellar explants = test: Cerebellar microexplants exposed to glutamate and 3-nitropropionic acid; live neurons with neurites counted; format: cell-based, rat; conditions: for numbers of cells having neurites: administered simultaneously with glutamate (1 mM) and 3-nitropropionic acid (0.5 mM), final concentrations 1-100 nM, postnatal day 8 Wistar rat cerebellar microexplants; for recovery from / prevention of glutamate-induced neurotoxicity: compound applied simultaneously, 1-100 nM
# Experimental: To determine the effects of the compounds of the invention on neuronal cells in vitro, a series of studies was carried out using cerebellar explants from […]. In vitro systems are suitable for studying neuronal proliferation, neurite growth, formation of nerve bundles and effects of toxins on neural cells, effects that parallel effects observed in vivo. Thus, results of studies using in vitro cerebellar explants are predictive of effects of interventions in vivo.
# In a first series of studies, effects of glutamate on cerebellar explants were determined. At physiological concentrations, glutamate is a neurotransmitter in the CNS of mammals, including humans. However, at sufficiently high concentrations, glutamate is neurotoxic, resulting in neuronal cell death. Because glutamate is a naturally occurring neurotransmitter in the CNS of mammals, including humans, and because glutamate neurotoxicity is recognized in the art as reflective of neurotoxicity in general, and including cell death and degeneration, it is a valuable tool useful for identifying and characterizing agents effective in treatment of neurodegeneration and neural cell death.
# Cover slips were placed into a large Petri dish and washed in 70% alcohol for 5 minutes, then washed with Millipore H2O. The cover slips were air dried, and coated with Poly-D-Lysine (1 mg/ml stock solution in PBS, 90-100 μl) for 2 hours at 34° C.
# Postnatal day 8 Wistar rats were used for the study. The rats were sacrificed and placed in ice for 1 minute, decapitated and the cerebellum removed and placed on ice. Cerebellum tissue was placed in 1 ml of 0.65% glucose-supplemented PBS (10 μl 65% stock D (+)glucose/1 ml PBS) in a large Petri dish, chopped up into smaller sections and triturated with a 1 ml insulin syringe via a 23 G (0.4 mm) needle, and then squirted back into the glucose solution in the large Petri dish. The tissue was sieved through (125 μm pore size gauze) and centrifuged (2 minutes at 60 g) twice to exchange the medium into serum-free BSA-supplemented START V medium (Biochrom, Germany). The second centrifugation step was done with 1 ml of START V medium. The microexplants were reconstituted into 500 μl of START V medium and put on ice.
# Two hours after PDL-coating, the slides were washed with Millipore H2O and air dried. Each slide was placed into a small Petri dish (diameter: 35 mm) and 40 μl of START V/cell suspension was added. The tissue was incubated for 2 hours at 34° C. (settlement period). START V-medium (1 ml) was then added to the Petri dish and cultivated at 34° C. in the presence of 5% CO2 in air at 100% humidity for 48 hours.
# For the study, certain explant cultures were exposed to vehicle (PBS) only. In the first study (Study 1) 10 μl of toxin 1 (L-glutamate-100 mM in Millipore water; final concentration: 1 mM) and 10 μl of toxin 2 (3-nitropropionic acid-50 mM- pH 7- in Millipore water, final concentration: 0.5 mM) was applied simultaneously with the compounds to be tested (10 mM stock solution prepared in PBS and diluted to final concentrations between 1-100 nM). […]
# Neurons in the explants were then evaluated for morphology (presence of neurites) and counted as live cells per microscopic field. Four fields displaying highest cell density were counted per cover slip and the data presented as mean±standard error of the mean (SEM); n=4 each. Statistical significance was evaluated by using the non-paired Student's t-test.
# [2] = test system: rats exposed to hypoxic-ischemic injury (HI); test: Hypoxic-ischemic injury (modified Levine model), histological tissue damage score; format: in vivo, rat; conditions: 100 pM icv, 20 μl over 20 minutes, 2 hours after hypoxic-ischemic insult; histology 5 days after injury; adult male Wistar rats; compared to vehicle treated group, p<0.001
# Experimental: To determine whether compounds of the invention might prevent neuronal injury in response to stroke, cardiac arterial bypass graft surgery (CABG) or other hypoxic insults, a series of studies were carried out in rats that had been exposed to hypoxic-ischemic injury (HI). Adult rats (Wistar, 280-310 g, male) were used. The modified Levine model preparation and experimental procedures were used (Rice et al, 1981, Ann. Neurol.: 9: 131-141; Guan et al J., 1993, Cereb. Blood Flow Metab.: 13(4): 609-16). These procedures in brief, consist of an HI injury induced by unilateral carotid artery ligation followed by inhalational asphyxia in the animals with an implanted lateral ventricular cannula. A guide cannula was stereotaxically placed on the top of the dura 1.5 mm to the right of the mid-line and 7.5 mm anterior to the interaural zero plane under halothane anaesthesia. […]
# Coronal sections 8 μm in thickness were cut from the striatum, cerebral cortex and hippocampus and were stained with thionin and acid fuchsin. The histological outcome was assessed at three levels: (1) the mid level of the striatum, (2) where the completed hippocampus first appeared and (3) the level where the ventral horn of the hippocampus just appears. The severity of tissue damage was scored in the striatum, cortex and the CA1-2, CA3, CA4 and dentate gyrus of the hippocampus. […]
compound,measurement,setting,value
CC(C)(C)OC(=O)[C@@H]1CC[C@@H]2CC=CCN(C(=O)OCc3ccccc3)CC(=O)N21,"ring closure, yield of all isomers","[1]; from C=CC[C@H]1CC[C@@H](C(=O)OC(C)(C)C)N1C(=O)CN(CC=C)C(=O)OCc1ccccc1, Grubbs I (bis(tricyclohexylphosphine)benzylideneruthenium dichloride), dichloromethane, 4.03 mM, 40.0 °C, 48.0 h",46%
CC(C)(C)OC(=O)[C@@H]1CC[C@H]2CC=CCN(C(=O)OCc3ccccc3)CC(=O)N21,"ring closure, yield of all isomers","[1]; from C=CC[C@@H]1CC[C@@H](C(=O)OC(C)(C)C)N1C(=O)CN(CC=C)C(=O)OCc1ccccc1, bis(tricyclohexylphosphine)benzylidineruthenium dichloride (Grubbs I), dichloromethane, 4.1 mM, 40.0 °C, 48.0 h",42%
O=C(O)[C@@H]1CCCCNCC(=O)N2CCC[C@H]2C(=O)N[C@H](C(=O)O)C1,"ring closure, yield of all isomers","[1]; from C=CC[C@H](C[C@H](NC(=O)[C@@H]1CCCN1C(=O)CN(CC=C)C(=O)OCc1ccccc1)C(=O)OCc1ccccc1)C(=O)OCc1ccccc1, Grubbs II generated in situ (bis(tricyclohexylphosphine)benzylideneruthenium dichloride + SIMes.HBF4/KOtBu), benzene, 2.27 mM, 45.0 °C, 65.0 h, 2 steps",58%
"N[C@@H](CCC(=O)O)C(=O)O [Glutamate, L-glutamate, reference compound]",loss of cerebellar neurons having neurites,"cerebellar explants; glutamate 1 mM, compared to vehicle-treated controls",~80%
"N[C@H]1CCCC[C@@H]2CC[C@@H](C(=O)N[C@@H](CCC(=O)O)C(=O)O)N2C1=O.O=C(O)C(F)(F)F [compound 48, (2S, 3′S, 8′R, 11′S) 2-{[(3′-Amino-1′-aza-2′-oxobicyclo[6.3.0]-undecyl)-11′-carbonyl]amino}-1,5-pentanedioic acid trifluoroacetate salt]",numbers of cells having neurites,cerebellar explants,significantly increased the numbers of cells having neurites in a dose-dependent manner
same,recovery from / prevention of glutamate-induced neurotoxicity,"cerebellar explants; glutamate 1 mM, trifluoroacetate salt",significant recovery; also recorded: prevented glutamate-induced neurotoxicity
"O=C(O)C(F)(F)F.O=C(O)CC[C@H](NC(=O)[C@@H]1CC[C@@H]2CCCCNCC(=O)N21)C(=O)O [compound 68, (2S, 9′S, 12′S)-2-{[(1′,4′-Diaza-2′-oxobicyclo[7.3.0]dodecyl)-12′-carbonyl]amino}-1,5-pentanedioic acid trifluoroacetate]","tissue damage (damage score) in striatum, cortex and hippocampus",[2],significantly reduced the tissue damage in each brain region examined
same,numbers of cells having neurites,cerebellar explants,significantly increased the numbers of cells having neurites in a dose-dependent manner
same,recovery from / prevention of glutamate-induced neurotoxicity,cerebellar explants; glutamate 1 mM,significant recovery; also recorded: prevented glutamate-induced neurotoxicity
